By pIC50 is commonly meant −log10 of the IC50, conventionally taken in molar units. Read a high pIC50 as a low IC50.

Each structure is given as a SMILES string. pIC50: −log10 of the molar value.

Data on ten compounds can be found in US9650361B2, “N-(pyridin-2-yl)pyrimidin-4-amine derivatives containing a sulfoximine group” (BAYER PHARAM AKTIENGESELLSCHAFT, priority 2012, dated 2017).

Assay [1] addresses T1, CDK2/CycE (Homo sapiens, UniProt P24941).
T1 construct: GST; purchased ProQinase GmbH (Freiburg, Germany); host or cells: insect cells (Sf9)
The assay can be described thus: CDK2/CycE kinase assay (Method 2a). In kind it is biochemical. To be noted: 10 μM ATP. An excerpt:
2a. CDK2/CycE Kinase Assay:
CDK2/CycE-inhibitory activity of compounds of the present invention was quantified employing the CDK2/CycE TR-FRET assay as described in the following paragraphs:
Recombinant fusion proteins of GST and human CDK2 and of GST and human CycE, expressed in insect cells (Sf9) and purified by Glutathion-Sepharose affinity chromatography, were purchased from ProQinase GmbH (Freiburg, Germany) As substrate for the kinase reaction biotinylated peptide biotin-Ttds-YISPLKSPYKISEG (C-terminus in amid form) was used which can be purchased e.g. form the company JERINI Peptide Technologies (Berlin, Germany).
(§1) For the assay 50 nl of a 100 fold concentrated solution of the test compound in DMSO was pipetted into a black low volume 384 well microtiter plate (Greiner Bio-One, Frickenhausen, Germany), 2 μl of a solution of CDK2/CycE in aqueous assay buffer [50 mM Tris/HCl pH 8.0, 10 mM MgCl2, 1.0 mM dithiothreitol, 0.1 mM sodium ortho-vanadate, 0.01% (v/v) Nonidet-P40 (Sigma)] were added and the mixture was incubated for 15 min at 22° C. to allow pre-binding of the test compounds to the enzyme before the start of the kinase reaction. Then the kinase reaction was started by the addition of 3 μl of a solution of adenosine-tri-phosphate (ATP, 16.7 μM=>final conc. in the 5 μl assay volume is 10 μM) and substrate (1.25 μM=>final conc. in the 5 μl assay volume is 0.75 μM) in assay buffer and the resulting mixture was incubated for a reaction time of 25 min at 22° C. The concentration of CDK2/CycE was adjusted depending of the activity of the enzyme lot and was chosen appropriate to have the assay in the linear range, typical concentrations were in the range of 130 ng/ml. The reaction was stopped by the addition of 5 μl of a solution of TR-FRET detection reagents (0.2 μM streptavidine-XL665 [Cisbio Bioassays, Codolet, France] and 1 nM anti-RB(pSer807/pSer811)-antibody from BD Pharmingen [#558389] and 1.2 nM LANCE EU-W1024 labeled anti-mouse IgG antibody [Perkin-Elmer, product no. AD0077]) in an aqueous EDTA-solution (100 mM EDTA, 0.2% (w/v) bovine serum albumin in 100 mM HEPES/NaOH pH 7.0).
(§2) The resulting mixture was incubated 1 h at 22° C. to allow the formation of complex between the phosphorylated biotinylated peptide and the detection reagents. Subsequently the amount of phosphorylated substrate was evaluated by measurement of the resonance energy transfer from the Eu-chelate to the streptavidine-XL. Therefore, the fluorescence emissions at 620 nm and 665 nm after excitation at 350 nm was measured in a TR-FRET reader, e.g. a Rubystar (BMG Labtechnologies, Offenburg, Germany) or a Viewlux (Perkin-Elmer). The ratio of the emissions at 665 nm and at […] was taken as the measure for the amount of phosphorylated substrate. The data were normalised (enzyme reaction without inhibitor=0% inhibition, all other assay components but no enzyme=100% inhibition).

In assay [2] the target is T1, CDK2/CycE. The assay can be described thus: CDK2/CycE high ATP kinase assay (Method 2b). The format is biochemical. To be noted: 2 mM ATP. The method, then: 2b. CDK2/CycE High ATP Kinase Assay:
CDK2/CycE-inhibitory activity of compounds of the present invention at 2 mM adenosine-tri-phosphate (ATP) was quantified employing the CDK2/CycE TR-FRET (TR-FRET=Time Resolved Fluorescence Energy Transfer) assay as described in the following paragraphs.
Recombinant fusion proteins of GST and human CDK2 and of GST and human CycE, expressed in insect cells (Sf9) and purified by Glutathion-Sepharose affinity chromatography, were purchase from ProQinase GmbH (Freiburg, Germany) As substrate for the kinase reaction biotinylated peptide biotin-Ttds-YISPLKSPYKISEG (C-terminus in amid form) was used which can be purchased e.g. form the company JERINI peptide technologies (Berlin, Germany).
as §1, with “ATP (3.33 mM=>final” for “of adenosine-tri-phosphate (ATP, 16.7 μM=>final”, “2 mM)” for “10 μM)”, “15” for “130”, “AD0077, as an alternative a Terbium-cryptate-labeled anti-mouse IgG antibody from Cisbio Bioassays can be used])” for “AD0077])”
as §2, with “350 nm were measured in” for “350 nm was measured in”

In the case of `COc1cc(F)ccc1-c1cc(Nc2cc(CS(C)(=N)=O)ccn2)ncn1` (racemic) [Example 1, (rac)-6-(4-Fluoro-2-methoxyphenyl)-N-{4-[(S-methylsulfonimidoyl)methyl]pyridin-2-yl}pyrimidin-4-amine], the negative-log IC50 (pIC50) in assay [1] was 6.22; in assay [2], 5.82.

As to `COc1cc(F)ccc1-c1cc(Nc2cc(CS(C)(=N)=O)cc(Cl)n2)ncn1` (racemic) [Example 4, (rac)-N-{6-Chloro-4-[(S-methylsulfonimidoyl)methyl]pyridin-2-yl}-6-(4-fluoro-2-methoxyphenyl)pyrimidin-4-amine], the figures for the pIC50 in assay [1] and in assay [2] were 6.80 and 5.95, respectively.

As to `COc1cc(F)ccc1-c1cc(Nc2cc(CS(C)(=N)=O)cc(C)n2)ncn1` (racemic) [Example 7, (rac)-6-(4-Fluoro-2-methoxyphenyl)-N-{6-methyl-4-[(S-methylsulfonimidoyl)methyl]pyridin-2-yl}pyrimidin-4-amine], the negative-log IC50 (pIC50) in assay [1] was 6.55; in assay [2], 5.44.

For the compound `COc1cc(F)ccc1-c1cc(Nc2cc(CS(C)(=N)=O)cc(C(F)(F)F)n2)ncn1` (racemic) [Example 10, (rac)-6-(4-Fluoro-2-methoxyphenyl)-N-{4-[(S-methylsulfonimidoyl)methyl]-6-(trifluoromethyl)pyridin-2-yl}pyrimidin-4-amine], the pIC50 in assay [1] was 7.20; in assay [2], 6.10.

As to `COc1cc(F)ccc1-c1cc(Nc2cc(CS(C)(=N)=O)ccn2)ncn1` (single isomer, unassigned) [Example 2, 6-(4-Fluoro-2-methoxyphenyl)-N-{4-[(S-methylsulfonimidoyl)methyl]pyridin-2-yl}pyrimidin-4-amine], the pIC50 in assay [1] is 5.89; in assay [2] it was 5.81.

`COc1cc(F)ccc1-c1cc(Nc2cc(CS(C)(=N)=O)ccn2)ncn1` (single isomer, unassigned) [Example 3, 6-(4-Fluoro-2-methoxyphenyl)-N-{4-[(S-methylsulfonimidoyl)methyl]pyridin-2-yl}pyrimidin-4-amine]: the pIC50 in assay [1] is 6.18; in assay [2], 5.98.

Regarding `COc1cc(F)ccc1-c1cc(Nc2cc(CS(C)(=N)=O)cc(Cl)n2)ncn1` (single isomer, unassigned) [Example 5, N-{6-Chloro-4-[(S-methylsulfonimidoyl)methyl]pyridin-2-yl}-6-(4-fluoro-2-methoxyphenyl)pyrimidin-4-amine], the figures for the negative logarithm of the IC50 (pIC50) in assay [1] and in assay [2] were 7.25 and 5.85, respectively.

As to `COc1cc(F)ccc1-c1cc(Nc2cc(CS(C)(=N)=O)cc(Cl)n2)ncn1` (single isomer, unassigned) [Example 6, N-{6-Chloro-4-[(S-methylsulfonimidoyl)methyl]pyridin-2-yl}-6-(4-fluoro-2-methoxyphenyl)pyrimidin-4-amine], the pIC50 in assay [1] was 7.03; in assay [2] it was 5.74.

Consider `COc1cc(F)ccc1-c1cc(Nc2cc(CS(C)(=N)=O)cc(C)n2)ncn1` (single isomer, unassigned) [Example 8, 6-(4-Fluoro-2-methoxyphenyl)-N-{6-methyl-4-[(S-methylsulfonimidoyl)methyl]pyridin-2-yl}pyrimidin-4-amine], for which the pIC50 is 6.40 in assay [1] and 5.20 in assay [2].

For the compound `COc1cc(F)ccc1-c1cc(Nc2cc(CS(C)(=N)=O)cc(C)n2)ncn1` (single isomer, unassigned) [Example 9, 6-(4-Fluoro-2-methoxyphenyl)-N-{6-methyl-4-[(S-methylsulfonimidoyl)methyl]pyridin-2-yl}pyrimidin-4-amine], the pIC50 is 6.48 in assay [1] and 5.36 in assay [2].
